For series [1] the following is noted: literature (Schmidtchen et al., 2002); cited from earlier work.
The next series concerns HGF-1 cells. The series can be described thus: MTT cytotoxicity assay on HGF-1 cells (Example 2). In kind it is cell-based, human. The protocol:
The mammalian cell line HGF-1 (ATCC® CRL-2014™) was commercially obtained by ATCC and cultured at 37° C. and 5% CO2 in Dulbecco's Modified Eagle's Medium (Thermo Fisher Scientific, France) supplemented with 10% (v/v) bovine calf serum (Dutscher, France) and 1% (v/v) penicillin-streptomycin (Thermo Fisher Scientific, France).
The cytotoxicity of the antimicrobial agents was examined by MTT [3(4,5-dimethylthiazol-2-yl)-2,5 diphenyl tetrazolium bromide] assays (Scientific Life—France) against HGF-1 cells. Cells were incubated for 24 h in a 96-wells plate before being treated with various concentrations of Ca(OH)2 alone or supplemented with the peptide. As a control, cells were plated in each 96-wells without being treated. After 24 h, 48 h and 72 h incubation, cells were carefully washed with PBS and treated with MTT at a final concentration of 0.25 mg/mL. HGF-1 cells were then incubated for 2 h at 37° C. before being lysed with isopropanol/HCL (48:2, v/v). Cell viability was assessed by reading the OD540 nm with a Multiskan EX microplate spectrophotometer (Thermo Fisher Scientific, France). The OD540 nm of each well was then compared to the […] of the control. For each set of experiments, standard deviations were determined.
In general terms: Tetrazolium assays rely on reduction of a dye to a coloured formazan, in cell work by metabolically active cells.

For the next series, the system named is Enterococcus faecalis. In kind it is cell-based. Particulars: saturated solution of Ca(OH)2 (1.7 mg/mL, pH 9). The protocol: (§1) Enterococcus faecalis (CCM 2541) was obtained from the Czechoslovac Collection of Microorganisms (Czech Republic) Bacteria were cultured in Anaerobe Basal Broth (Oxoid, France) at 37° C. in anaerobic conditions. Candida albicans (ATCC© 10231™) was cultured in Sabouraud medium (BD, France) supplemented with tetracycline (10 μg/mL) and cefotaxime (10 μg/mL).
(§2) An overnight culture of each pathogen was diluted (OD600 nm=0.001) and incubated at 37° C. in 96-plates in the presence of different concentrations of antimicrobial agents. When testing Ca(OH)2, the pH of the solution was measured with by pH meter. (CyberScan pH 510©, Eutech, France). After 24 h incubation, the OD620 nm was evaluated with a spectrophotometer (Multikan EX, ThermoScientific, France). Each assay was done at least in triplicate. For each set of assay, the standard deviation was determined.

The next series concerns Fusobacterium nucleatum. The series can be described thus: Broth dilution assay (Example 2). It counts as cell-based. On the procedure: as §1, §2
The test system of a further series is Candida albicans. Description: Broth dilution assay (Example 2). It counts as cell-based. Particulars: Ca(OH)2 0.85 mg/mL alone, or combined with ½ MIC of D-CTL. On the procedure:
as §1, §2
A general note: In broth dilution the organism is exposed to a series of concentrations in liquid medium.

The subject of another series is Prevotella intermedia. Description: Broth dilution assay (Example 2). The note with it: Ca(OH)2 0.85 mg/mL alone, or combined with ½ MIC of D-CTL. It counts as cell-based. On the procedure:
as §1, §2

The test system of a further series is Parvimonas micra. Description: Broth dilution assay (Example 2). In kind it is cell-based. The note with it: Ca(OH)2 0.85 mg/mL alone, or combined with ½ MIC of D-CTL.

As to LL-37, the “degradation by the virulence factors of E. faecalis” value in series [1] was “completely degraded”.
With `[Ca+2].[OH-].[OH-]` [Ca(OH)2], the “toxicity on HGF-1” value is “below 4% (±7%)” in the series with HGF-1 cells (Ca(OH)2 0.425 g/L, after three days incubation); “below 4% (±7%)” in the series on HGF-1 cells (Ca(OH)2 0.85 g/L, after three days incubation); 20% (±7%) in the series on HGF-1 cells (saturated solution of Ca(OH)2 (1.7 mg/mL), after 24 h); 50% (±6%) in the series on HGF-1 cells (saturated solution of Ca(OH)2 (1.7 mg/mL), after 72 h incubation); 14% (±11%) with HGF-1 cells (saturated solution of Ca(OH)2 (1.7 mg/mL), second of three values, time not clearly printed). The “inhibition rate of E. faecalis growth” value in the series with Enterococcus faecalis is on record as 58% (±5%). Moreover, in the series with Fusobacterium nucleatum (Ca(OH)2 0.85 mg/mL alone, or combined with ½ MIC of D-CTL), the “inhibition of F. nucleatum growth” value was 30%±10%. The “inhibition of the growth of F. nucleatum” value in the series on Fusobacterium nucleatum (saturated solution of Ca(OH)2 (1.7 mg/mL, pH 9)) was 100% (±1%). Moreover, the “inhibition of C. albicans growth” value in the series on Candida albicans is listed as 87%±2%. The “inhibition of P. intermedia growth” value in the series on Prevotella intermedia was 77%±6%. The “inhibition of P. micra growth” value with Parvimonas micra was 15%±6%.

(Values after patent US20190375791A1, “NEW D-CONFIGURED CATESLYTIN PEPTIDE” (priority 2016, published 2019).)
